“Also recorded” adds a separate entry of the source.
Experiments:
[1] = system: HSV-1; format: cell-based, Herpes simplex 1; conditions: Vero cells, 4 hour treatment, low multiplicity HSV-1
[2] = system: SARS-CoV-2 spike protein; conditions: previously demonstrated; blocks N-glycan processing at the oligomannose stage; cited from earlier work
[3] = system: SARS-CoV-2 (USA_WA1/2020); conditions: highest non-toxic dose; Vero E6, 72 hr
Description: In this assay, viral infection and replication leads to a loss of host cell viability, which is indirectly measured by an endpoint assessment of host cell viability after 72 hr. The CPE reduction assay indirectly monitors the ability of compounds to inhibit viral replication and infection through various molecular mechanisms, including direct inhibition of viral entry or enzymatic processes as well as acting on host pathways that modulate viral replication. Compounds with antiviral activity protect the host cells from the CPE of the virus, increasing viability.
Protocol: Vero E6 cells were premixed with SARS-CoV-2 for 5-10 min, dispensed into assay ready plates (pre-dispensed with compounds and controls). Cells and virus were incubated with compounds for 72 hr, then viability was assayed by Vero E6 host cell ATP content. 60 nL/well of compounds in DMSO was spotted into 384-well assay plates (Greiner, black clear bottom, tissue culture treated plates, #781091) by acoustic dispensing. In addition, 60 nL of the positive control Calpain inhibitor IV (stock concentration 2 mg/mL). 5 μL/well of media was dispensed into assay plates (MEM, 1% Pen/Strep/GlutaMax, 1% HEPES, 2% HI FBS). […] Luminescence signal was read on Perkin Elmer Envision or BMG CLARIOstar plate reader.

[4] = system: HSV-2 GFP+ (bHSV2-BAC38-S1); test: HSV-2 GFP+ infection of MRC5 cells, live-cell fluorescence imaging; format: cell-based; conditions: for inhibition of fluorescent HSV-2 GFP+ infected cells: 24 hours post infection, 125 μM (FIG. 5A)
Description: FIG. 5A. Fluorescent images of MRC5 cells infected with HSV-2 GFP+(bHSV2-BAC38-S1). Images taken at 0 and 24 hours post infection using an Incucyte S3 Live-Cell Analysis System. Acyclovir at a matched concentration (125 μM) was used as a positive control. FIG. 5B. Live cell imaging analysis of triplicate wells infected with HSV-2 GFP+. Wells were treated with either Vehicle (0.1% DMSO), Acyclovir 125 μM, or JR002 125 μM. Images were collected at 2 hour intervals for 48 hours post infection. Relative fluorescent intensity (RFI) calculated as the percent increase in fluorescence intensity relative to time 0 post infection. Bars represent the standard error of the mean.
JR002 is the selenoglycoside homolog of TE3048, the thioglycoside for which data for inhibition of HSV-1 was shown above. In FIG. 5A., the lower right quadrant represents high level cell damage, fluorescent HSV-2 GFP+ infected cells 24 hours post infection (24HPI), vehicle only.

CC(=O)N[C@@H]1[C@@H](O)[C@H](O)[C@@H](CO)O[C@H]1SC/C=C(\C)CCC=C(C)C [TE3054, GlcNAc-ß-S-geranyl]
inhibition of HSV-1 infectivity / plaque formation [1]: inhibitory

O=C1N[C@@H]2[C@@H](O)[C@@H](O)[C@H](O)[C@@H](CO)N2C1=O [kifunensine]
inhibition of N-glycan maturation and infectivity [2]: Inhibition of N-glycan maturation and infectivity

CC(=O)N[C@@H]1[C@@H](OC(C)=O)[C@H](OC(C)=O)[C@@H](COC(C)=O)O[C@H]1SC/C=C(\C)CCC=C(C)C [TE3048, N,O-tetra-acetyl-GlcNAc-ß-S-geranyl]
inhibition of SARS-CoV-2 [3]: 60-70%

CC(=O)NC1C(OC(C)=O)[C@H](OC(C)=O)C(COC(C)=O)O[C@H]1[Se]C/C=C(\C)CCC=C(C)C (stereo partly drawn) [JR002, Geranyl 2-acetamido-2-deoxy-3,4,6-tri-O-acetyl-1-seleno-3-D-glucopyranoside]
inhibition of HSV-2 replication / infectivity ([4]; 125 μM, imaging for 48 hours post infection): potent inhibition of infectivity; also recorded: significantly inhibits
inhibition of fluorescent HSV-2 GFP+ infected cells [4]: almost complete inhibition

Nc1nc2c(ncn2COCCO)c(=O)[nH]1 [Acyclovir, reference compound]
inhibition of fluorescent HSV-2 GFP+ infected cells [4]: almost complete inhibition
